Source: publication PMC4585259 (Frontiers in Pharmacology, 2015)
Where two headings read alike, the source gives them in different places.

Target: T1, rNav1.2 sodium channels (Rattus norvegicus, UniProt P04775)
T1 construct: host or cells: HEK-293
Assay: QPatch automated patch clamp, inhibition of sodium currents evoked by 5 Hz trains at three extracellular pH values
Type: cell-based
Details: for class of pH-dependence pattern (cluster analysis): Ward's method on 18 variables of affinity, reversibility, onset; for τoffset / τonset: concentration (lidocaine 300 μM, memantine 30 μM)
Method: HEK-293 cells stably expressing rNav1.2 sodium channels were obtained from NeuroSearch (Ballerup, Denmark). The cells were grown in Dulbecco's modified Eagle medium supplemented with 10% FBS. Prior to use, the cells were trypsinized and subsequently kept in suspension in the QPatch cell storage facility in CHO-S- SFM-II medium.
Composition of the extracellular solution was: (in mM): 140 NaCl, 3 KCl, 1 CaCl2 1 MgCl2, 0.1 CdCl2, 20 TEA-Cl, 5 HEPES, adjusted to pH 7.3, Osmolality: 320 mOsm. […] Drugs were synthesized in Gedeon Richter Plc. […] The full list of drugs, with their three-letter codes, concentration, as well as their main therapeutic indication and main mechanism of action are shown in Table 1. […] The choice of concentrations used in this study may seem unusually high.
Data were sampled at a frequency of 25 kHz and filtered at 5 kHz. Junction potential was calculated to be −11 mV and was corrected for. […] Cells having membrane resistance < 500 MOhm, series resistance > 9 MOhm, or capacitance > 22 pF were excluded from analysis. The experimental protocol was also identical to the one used in our previous study: sodium channels were activated by 5 Hz trains of 5 depolarizations (−90 to −10 mV) repeated in every 20 s. In this study, however, the same control–drug-application–washout sequence was repeated four times: at neutral, acidic, alkalic, and again neutral pH. The peak amplitudes of sodium currents throughout the whole experiment are shown plotted against time in Figure 1 and Supplementary Figure 1.
Initial analysis, including subtraction of leak and capacitive artifacts, as well as peak detection were done in the QPatch software. […] All experiments were normalized to the amplitude of the current evoked by the first depolarization of the last train under control conditions. […] For all four drug applications in an experiment, apparent affinity, onset and offset time constants as well as reversibility values were calculated. […] (This method is equivalent to applying the Lineweaver-Burk plot method using a single concentration.) Reversibility values were calculated from control (c), inhibited (i), and wash-out (w) amplitudes as follows: Reversibility = (w-i)/(c-i). Reversibility values should not be regarded as experimental platform-independent properties of compounds. […] However, reversibility values are a valuable source of information regarding physicochemical differences between individual drugs, or between effects of the same drug under different extracellular pH conditions. Onset and offset time constants were determined by single exponential fitting to individual experiments. For neutral pH numerical data were given as the average of the data from the first and the last drug applications. Thin black lines on Figure 1 and Supplemental Figure 1 show the average of five fitted exponentials, (not the exponential fitted to the averaged normalized amplitudes). The numerical values of apparent affinity, onset and offset time constants and reversibility are shown in Table 2, and their relative position is illustrated in Figure 2. Affinity and time constant values were logarithmically transformed for statistics, therefore we show their geometric mean. For recovery data no transformation was done, and we show arithmetic mean values. Significance values were calculated using paired, two-tailed Student's t-test based on five pairs of apparent affinity (log transform), time constant (log transform), or reversibility values obtained from five individual experiments. Because of the large number of comparisons in this study, we accepted p < 0.01 as significant. Cluster analysis was done using Ward's minimum variance method, with Euclidean distance measure. Data were normalized by subtracting the mean (after logarithmic transformation in the case of apparent affinity and time constants), and dividing by the standard deviation.

[1] = pH 6.0, single concentration (lidocaine 300 μM, memantine 30 μM), geometric mean of 5, read-out: apparent affinity
[2] = pH 7.3, single concentration (lidocaine 300 μM, memantine 30 μM), geometric mean of 5, read-out: apparent affinity
[3] = pH 8.6, single concentration (lidocaine 300 μM, memantine 30 μM), geometric mean of 5, read-out: apparent affinity
[4] = pH=6.0, cc 100 mM, read-out: Apparent Affinity
[5] = pH=7.3, cc 100 mM, read-out: Apparent Affinity
[6] = pH=8.6, cc 100 mM, read-out: Apparent Affinity

T1 sequence (P04775 whole entry): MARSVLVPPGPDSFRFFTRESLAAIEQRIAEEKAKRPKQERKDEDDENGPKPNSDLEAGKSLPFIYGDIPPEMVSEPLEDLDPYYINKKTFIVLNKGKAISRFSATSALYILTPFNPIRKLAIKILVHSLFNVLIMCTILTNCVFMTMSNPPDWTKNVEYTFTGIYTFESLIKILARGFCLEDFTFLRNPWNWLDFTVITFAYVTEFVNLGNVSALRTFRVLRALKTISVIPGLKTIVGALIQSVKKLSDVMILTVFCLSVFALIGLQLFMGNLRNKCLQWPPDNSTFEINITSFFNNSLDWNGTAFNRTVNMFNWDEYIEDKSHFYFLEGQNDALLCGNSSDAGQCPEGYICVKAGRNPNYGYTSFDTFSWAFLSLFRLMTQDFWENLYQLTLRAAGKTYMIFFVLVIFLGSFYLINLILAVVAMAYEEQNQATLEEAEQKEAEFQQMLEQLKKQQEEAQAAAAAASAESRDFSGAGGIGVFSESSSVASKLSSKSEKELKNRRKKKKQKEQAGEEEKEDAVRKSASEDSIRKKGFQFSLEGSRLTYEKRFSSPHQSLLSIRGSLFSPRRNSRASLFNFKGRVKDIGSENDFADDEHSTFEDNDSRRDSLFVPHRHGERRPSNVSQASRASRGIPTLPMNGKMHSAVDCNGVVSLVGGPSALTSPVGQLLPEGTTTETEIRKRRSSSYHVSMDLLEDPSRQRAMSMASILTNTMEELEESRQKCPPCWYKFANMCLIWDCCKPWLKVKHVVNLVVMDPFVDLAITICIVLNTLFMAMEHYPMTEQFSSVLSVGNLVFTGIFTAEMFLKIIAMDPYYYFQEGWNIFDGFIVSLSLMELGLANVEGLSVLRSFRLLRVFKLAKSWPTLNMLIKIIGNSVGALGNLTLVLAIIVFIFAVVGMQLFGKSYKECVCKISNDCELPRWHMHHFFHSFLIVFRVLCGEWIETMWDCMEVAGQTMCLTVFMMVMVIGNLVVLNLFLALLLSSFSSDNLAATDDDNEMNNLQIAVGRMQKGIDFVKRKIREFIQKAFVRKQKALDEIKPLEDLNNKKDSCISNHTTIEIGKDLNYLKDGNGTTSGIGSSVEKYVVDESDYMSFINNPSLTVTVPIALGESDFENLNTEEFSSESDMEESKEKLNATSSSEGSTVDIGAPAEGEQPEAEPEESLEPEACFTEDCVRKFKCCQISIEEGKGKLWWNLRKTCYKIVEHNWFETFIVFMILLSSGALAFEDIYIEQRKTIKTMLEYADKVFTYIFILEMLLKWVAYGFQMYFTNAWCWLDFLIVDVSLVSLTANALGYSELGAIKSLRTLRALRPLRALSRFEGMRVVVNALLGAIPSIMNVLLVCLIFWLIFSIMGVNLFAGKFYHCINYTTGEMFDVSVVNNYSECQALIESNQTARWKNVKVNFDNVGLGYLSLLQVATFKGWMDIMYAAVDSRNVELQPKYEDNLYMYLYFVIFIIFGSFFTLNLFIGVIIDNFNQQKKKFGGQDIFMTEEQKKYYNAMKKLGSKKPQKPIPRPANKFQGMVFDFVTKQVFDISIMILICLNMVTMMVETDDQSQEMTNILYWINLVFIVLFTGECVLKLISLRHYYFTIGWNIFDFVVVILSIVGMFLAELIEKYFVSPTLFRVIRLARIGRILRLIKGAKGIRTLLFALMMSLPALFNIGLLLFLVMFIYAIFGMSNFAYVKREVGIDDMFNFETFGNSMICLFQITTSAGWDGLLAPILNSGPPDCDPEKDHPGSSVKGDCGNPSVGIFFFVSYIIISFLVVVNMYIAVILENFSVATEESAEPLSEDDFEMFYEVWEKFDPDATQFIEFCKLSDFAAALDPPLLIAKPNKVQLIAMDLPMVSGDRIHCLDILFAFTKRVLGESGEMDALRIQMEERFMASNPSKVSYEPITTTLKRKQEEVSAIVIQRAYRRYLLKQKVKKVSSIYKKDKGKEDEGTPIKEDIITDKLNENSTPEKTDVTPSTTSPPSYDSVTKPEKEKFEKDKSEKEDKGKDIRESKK

Compound | class of pH-dependence pattern (cluster analysis) | Ratio Reversibility (pH 6.0/7.3, cc 100 mM) | Ratio Tau Offset (pH 6.0/7.3, cc 100 mM) | Ratio Tau Onset (pH 6.0/7.3, cc 100 mM) | log Ratio App Aff (pH 6.0/7.3, cc 100 mM) | Ratio Reversibility (pH 6.0/8.6, cc 100 mM) | Ratio Tau Offset (pH 6.0/8.6, cc 100 mM) | Ratio Tau Onset (pH 6.0/8.6, cc 100 mM) | log Ratio App Aff (pH 6.0/8.6, cc 100 mM) | τoffset (pH 6.0) | τonset (pH 6.0) | Kd [1] | Ratio Reversibility (pH 7.3/8.6, cc 100 mM) | Ratio Tau Offset (pH 7.3/8.6, cc 100 mM) | τoffset (pH 7.3) | τonset (pH 7.3) | Kd [2] | τoffset (pH 8.6) | τonset (pH 8.6) | Kd [3] | other results
Nc1c(Br)cc(Br)cc1CN[C@H]1CC[C@H](O)CC1 [ambroxol] | Class G | 0.839 | 0.759 | 0.884 | 0.190 | 1.137 | 0.708 | 0.667 | 0.494 | 8.50 s | 7.60 s | 138 µM | 1.355 | 0.933 | 11.20 s | 8.60 s | 88.7 µM | 12.00 s | 11.40 s | 44.2 µM | Ratio Tau Onset (pH 7.3/8.6, cc 100 mM): 0.754; log Ratio App Aff (pH 7.3/8.6, cc 100 mM): 0.303; Reversibility (pH=6.0, cc 100 mM): 0.65; Kd [4]: 138 µM; Reversibility (pH=7.3, cc 100 mM): 0.78; Kd [5]: 88.7 µM; Reversibility (pH=8.6, cc 100 mM): 0.58; Kd [6]: 44.2 µM
CN(C)CCC=C1c2ccccc2CCc2ccccc21 [amitriptyline] | Class C | – | – | – | – | – | – | – | – | 23.45 s | 16.40 s | 40.7 µM | – | – | 19.66 s | 15.10 s | 25.6 µM | 28.00 s | 14.70 s | 13.8 µM | Ratio Reversibility (pH 6.0/7.3, cc 30 mM): 1.364; Ratio Tau Offset (pH 6.0/7.3, cc 30 mM): 1.193; Ratio Tau Onset (pH 6.0/7.3, cc 30 mM): 1.086; log Ratio App Aff (pH 6.0/7.3, cc 30 mM): 0.202; Ratio Reversibility (pH 6.0/8.6, cc 30 mM): 5.190; Ratio Tau Offset (pH 6.0/8.6, cc 30 mM): 0.838; Ratio Tau Onset (pH 6.0/8.6, cc 30 mM): 1.116; log Ratio App Aff (pH 6.0/8.6, cc 30 mM): 0.469; Ratio Reversibility (pH 7.3/8.6, cc 30 mM): 3.806; Ratio Tau Offset (pH 7.3/8.6, cc 30 mM): 0.702; Ratio Tau Onset (pH 7.3/8.6, cc 30 mM): 1.027; log Ratio App Aff (pH 7.3/8.6, cc 30 mM): 0.267; Reversibility (pH=6.0, cc 30 mM): 0.74; Kd (pH=6.0, cc 30 mM, read-out: Apparent Affinity): 40.7 µM; Reversibility (pH=7.3, cc 30 mM): 0.55; Kd (pH=7.3, cc 30 mM, read-out: Apparent Affinity): 25.6 µM; Reversibility (pH=8.6, cc 30 mM): 0.14; Kd (pH=8.6, cc 30 mM, read-out: Apparent Affinity): 13.8 µM
CCCCN1CCCCC1C(=O)Nc1c(C)cccc1C (stereo not shown) [bupivacaine] | Class B | 0.906 | 2.692 | 4.180 | 0.218 | 1.346 | 4.516 | 4.322 | 0.412 | 56.00 s | 51.00 s | 106 µM | 1.485 | 1.677 | 20.80 s | 12.20 s | 64.2 µM | 12.40 s | 11.80 s | 41 µM | effect of alkalic pH on onset/offset kinetics (in words): significant acceleration of both onset and offset; Ratio Tau Onset (pH 7.3/8.6, cc 100 mM): 1.034; log Ratio App Aff (pH 7.3/8.6, cc 100 mM): 0.194; Reversibility (pH=6.0, cc 100 mM): 0.64; Kd [4]: 106 µM; Reversibility (pH=7.3, cc 100 mM): 0.71; Kd [5]: 64.2 µM; Reversibility (pH=8.6, cc 100 mM): 0.48; Kd [6]: 41 µM
